System: COS Cell
Experiment: COS Cell IC50 (Cell-Based Assay)
Settings: procedure of WO 95/10516
Method: FPT IC50 (inhibition of farnesyl protein transferase, in vitro enzyme assay) and COS Cell IC50 (Cell-Based Assay) were determined following the assay procedures described in WO 95/10516, published April 20, 1995. GGPT IC50 (inhibition of geranylgeranyl protein transferase, in vitro enzyme assay), Cell Mat Assay, and anti-tumor activity (in vivo anti-tumor studies) could be determined by the assay procedures described in WO 95/10516. The disclosure of WO 95/10516 is incorporated herein by reference thereto.

## NC(=O)N1CC[C@@H](CC(=O)N2CCC(C3c4ncc(Br)cc4CCc4cc(Cl)cc(Cl)c43)CC2)C1 (stereo partly drawn) [Example 2, 3(S) -[2-(4-(3-bromo-8,10-dichloro-6-11-dihydro-5-H-benzo[5,6]-cyclohepta[1,2-b]pyridin-11-yl)-1-piperidinyl]-2-oxoethyl]-1-pyrrolidinecarboxamide]
  IC50: 30 nM

From EP0927178B1, “TRICYCLIC COMPOUNDS USEFUL FOR INHIBITION OF G-PROTEIN FUNCTION AND FOR TREATMENT OF PROLIFERATIVE DISEASES” (SCHERING CORPORATION, priority 1996, dated 1998)
